From ChEMBL document CHEMBL3232895, “N-aryl-2,6-dimethylbenzamides, a new generation of tocainide analogues as blockers of skeletal muscle voltage-gated sodium channels” (J Med Chem, 2014) come the findings set out here.

Data set [1] concerns the target T1, serum albumin (Rattus norvegicus, UniProt P02770). As to the kind of experiment: Binding affinity to rat serum albumin assessed as fraction unbound at 30 uM by HPLC analysis. In kind it is ADME.
Data set [2] in a line: Ratio of binding affinity to rat serum albumin assessed as fraction unbound to binding affinity to human serum albumin assessed as fraction unbound. The note with it: isolated protein. In kind it is ADME.
Data set [3] has as its target T1, serum albumin. As to the kind of experiment: Binding affinity to rat serum albumin at 30 uM by HPLC analysis. It is filed as ADME. The settings on record: read-out: PB (converted).
Data set [4] has as its target T2, serum albumin (Homo sapiens, UniProt P02768). As to the kind of experiment: Binding affinity to human serum albumin at 30 uM by HPLC analysis. It is filed as ADME. The note with it: read-out: PB (converted).
For data set [5], the target named is T2, serum albumin. Description: Binding affinity to human serum albumin assessed as fraction unbound at 30 uM by HPLC analysis. It is filed as ADME.
In data set [6] the test system is Pelophylax lessonae. As to the kind of experiment: Ratio of IC50 for tonic block of voltage-gated sodium channel in Rana esculenta ventral branch of semitendinosus muscle to IC50 for use-dependent block of voltage-gated sodium channel in Rana esculenta ventral branch of semitendinosus muscle at 10 Hz frequency. In kind it is tissue-based.
A short description of data set [7]: Inhibition of voltage-gated sodium channel in Rana esculenta ventral branch of semitendinosus muscle assessed as use-dependent block at 10 Hz frequency by Hille-Campbell vaseline gap voltage-clamp recording. It is filed as tissue-based, Pelophylax lessonae.
Data set [8] in a line: Inhibition of voltage-gated sodium channel in Rana esculenta ventral branch of semitendinosus muscle assessed as tonic block by measuring reduction of maximal peak sodium transient at holding potential -100 mV by Hille-Campbell vaseline gap voltage-clamp recording. In kind it is tissue-based, Pelophylax lessonae.
The nature of data set [9]: Inhibition of voltage-gated sodium channel in Rana esculenta ventral branch of semitendinosus muscle assessed as use-dependent block at 2 Hz stimulation frequency by Hille-Campbell vaseline gap voltage-clamp recording. In kind it is tissue-based, Pelophylax lessonae.
A short description of data set [10]: Inhibition of voltage-gated sodium channel in Rana esculenta ventral branch of semitendinosus muscle assessed as tonic block at 10 Hz stimulation frequency by measuring reduction of maximal peak sodium transient by Hille-Campbell vaseline gap voltage-clamp recording. In kind it is tissue-based, Pelophylax lessonae.
Data set [11] can be described thus: Inhibition of voltage-gated sodium channel in Rana esculenta ventral branch of semitendinosus muscle at -70 mV of holding potential by Hille-Campbell vaseline gap voltage-clamp recording. It is filed as tissue-based, Pelophylax lessonae.
Data set [12] in a line: Inhibition of voltage-gated sodium channel in Rana esculenta ventral branch of semitendinosus muscle at -140 mV of holding potential by Hille-Campbell vaseline gap voltage-clamp recording. It is filed as tissue-based, Pelophylax lessonae.
Data set [13] relates to Pelophylax lessonae. Description: Ratio of IC50 for tonic block of voltage-gated sodium channel in Rana esculenta ventral branch of semitendinosus muscle to IC50 for use-dependent block of voltage-gated sodium channel in Rana esculenta ventral branch of semitendinosus muscle at 2 Hz frequency. It is filed as tissue-based.
Data set [14] has as its system Pelophylax lessonae. Description: Steady state inactivation of voltage-gated sodium channel in Rana esculenta ventral branch of semitendinosus muscle at 100 uM assessed as change in potential at which 50% of sodium channel were inactivated measured at 1000 ms prepulse by Hille-Campbell vaseline gap voltage-clamp recording. It is filed as tissue-based.
In data set [15] the test system is Pelophylax lessonae. Description: Inhibition of voltage-gated sodium channel in Rana esculenta ventral branch of semitendinosus muscle assessed as tonic block by measuring reduction of maximal peak sodium transient at 300 uM at 10 Hz stimulation frequency by Hille-Campbell vaseline gap voltage-clamp recording. In kind it is tissue-based.
Data set [16] deals with Pelophylax lessonae. As to the kind of experiment: Inhibition of voltage-gated sodium channel in Rana esculenta ventral branch of semitendinosus muscle assessed as tonic block by measuring reduction of maximal peak sodium transient at 500 uM at 10 Hz stimulation frequency by Hille-Campbell vaseline gap voltage-clamp recording. In kind it is tissue-based.
The target of data set [17] is T2, serum albumin. Description: Binding affinity to human serum albumin. The settings on record: read-out: PB (converted). In kind it is ADME.

SMILES strings stand for the structures.

T2 sequence (P02768 whole entry): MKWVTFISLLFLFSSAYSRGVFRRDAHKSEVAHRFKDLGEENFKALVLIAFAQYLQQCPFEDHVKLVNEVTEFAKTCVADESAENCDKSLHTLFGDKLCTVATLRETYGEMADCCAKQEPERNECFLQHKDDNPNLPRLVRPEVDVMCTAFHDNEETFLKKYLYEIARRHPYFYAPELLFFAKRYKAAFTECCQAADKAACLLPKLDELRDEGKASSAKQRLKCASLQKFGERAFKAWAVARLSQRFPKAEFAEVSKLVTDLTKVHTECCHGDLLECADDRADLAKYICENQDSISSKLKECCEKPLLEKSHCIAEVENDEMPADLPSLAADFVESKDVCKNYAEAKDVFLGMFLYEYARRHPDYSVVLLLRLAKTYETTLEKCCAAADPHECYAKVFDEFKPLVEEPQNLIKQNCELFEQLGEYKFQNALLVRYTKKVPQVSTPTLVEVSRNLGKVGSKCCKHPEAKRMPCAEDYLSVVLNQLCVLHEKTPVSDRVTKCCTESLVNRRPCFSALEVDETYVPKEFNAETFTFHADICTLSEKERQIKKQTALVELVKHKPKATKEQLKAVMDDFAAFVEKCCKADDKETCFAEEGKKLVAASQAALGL
T1 sequence (P02770 whole entry): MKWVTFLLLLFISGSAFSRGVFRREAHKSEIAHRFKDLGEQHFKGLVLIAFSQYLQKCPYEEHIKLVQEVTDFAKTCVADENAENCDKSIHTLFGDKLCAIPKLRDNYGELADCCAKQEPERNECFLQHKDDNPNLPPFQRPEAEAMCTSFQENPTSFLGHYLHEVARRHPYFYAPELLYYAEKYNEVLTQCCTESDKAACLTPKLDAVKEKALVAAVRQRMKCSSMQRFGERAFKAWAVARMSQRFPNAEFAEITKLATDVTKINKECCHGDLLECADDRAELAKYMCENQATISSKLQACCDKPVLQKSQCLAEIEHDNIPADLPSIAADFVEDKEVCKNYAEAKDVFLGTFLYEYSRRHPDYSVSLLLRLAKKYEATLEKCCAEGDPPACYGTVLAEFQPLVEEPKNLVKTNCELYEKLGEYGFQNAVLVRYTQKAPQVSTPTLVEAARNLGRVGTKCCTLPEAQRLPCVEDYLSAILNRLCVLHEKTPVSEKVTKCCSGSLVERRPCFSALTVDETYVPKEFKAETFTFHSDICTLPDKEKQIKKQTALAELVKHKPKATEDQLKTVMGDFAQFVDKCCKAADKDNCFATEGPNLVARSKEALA

In the case of `Cc1cccc(C)c1NC(=O)C1CCN(Cc2ccccc2)C1` (centres undefined), the fraction unbound at 30 µM is 0.0644 at serum albumin [1], 0.064 at serum albumin [3], 0.029 at serum albumin [4] and 0.0284 at serum albumin [5]. Further, the Ratio in data set [2] is given as 2.27.

In general, IC50 refers to the point on the concentration scale where inhibition reaches its midpoint. As a reminder, the pIC50 is the negative decadic logarithm of the IC50, by convention in mol/L. For orientation: inhibition means how much of the control response was suppressed. As to `Cc1cccc(C)c1NC(=O)CC(C)N` (racemic), the Ratio IC50 with Pelophylax lessonae [6] was 8.6; with Pelophylax lessonae [13], 5.2. Besides, the IC50 stood at 48.8 µM in data set [7]; 420 µM in [8]; 81.2 µM in data set [9]; 54 µM in data set [11]; 603 µM in data set [12]. In [10], the pIC50 came to 4.31. Also, the Activity in the data set on Pelophylax lessonae [14] worked out at 4.8 mV. In addition, in the data set on Pelophylax lessonae [15], the inhibition came to 35.6%.

For `Cc1cccc(C)c1NC(=O)CC(C)NCc1ccccc1` (racemic), the fraction unbound at 30 µM at serum albumin [1] is 0.122; on serum albumin [3], 0.121; on serum albumin [4], 0.047; at serum albumin [5], 0.0474.

`Cc1cccc(C)c1NC(=O)CC(C)NCc1cccc2ccccc12` (racemic): the fraction unbound at 30 µM on serum albumin [1] was 0.04; on serum albumin [3] it was 0.04; on serum albumin [4], 0.033; at serum albumin [5] it was 0.033.

As for `Cc1cccc(C)c1NC(=O)C(C)N` (racemic) [TOCAINIDE], the Ratio IC50 with Pelophylax lessonae [6] was 2.1; in the data set on Pelophylax lessonae [13] it was 1.5. Also, the IC50 in data set [7] worked out at 248 µM; in data set [8], 523 µM; in data set [9], 350 µM; in data set [11] it was 254 µM; in data set [12], 985 µM. The fraction unbound at 30 µM is 0.64 at serum albumin [1], 0.64 on serum albumin [3], 0.746 on serum albumin [4] and 0.746 on serum albumin [5]. Also, the inhibition in the data set with Pelophylax lessonae [16] came to 42.6%. The Ratio in data set [2] was 0.86.

With `O=C1CN=C(c2ccccc2Cl)c2cc([N+](=O)[O-])ccc2N1` [CLONAZEPAM], the values for the fraction unbound at 30 µM at serum albumin [3] and at serum albumin [4] were 0.117 and 0.143, respectively. Moreover, the fraction unbound at serum albumin [17] was 0.14.
